Bridge positions count the residues as written; N and C are the ends. Peptide text beside a SMILES is read from it. I, II: the chains in the order shown.

Series [1] can be described thus: CD thermal denaturation (Tm). It is filed as physicochemical. The note with it: CD at 222 nm, 10 °C to 90 °C at 2 °C min–1, PBS pH 7.4, 10 μM peptide. On the procedure: (§1) Lyophilized peptides were resuspended in ddH2O (pH 7.0) at a concentration of approximately 1 mg mL^–1. […] The peptides were incubated in a water bath set at 37 °C for 0.5 h before testing. CD spectra were acquired on an MOS-450 system (BioLogic, Claix, France) using the following parameters: band width, 4.0 nm; resolution, 0.1 nm; path length, 0.1 cm; response time, 4.0 s; and scanning speed, 50 nm min^–1. For CD thermal denaturation analysis, the temperature was controlled by a BioLogic TCU250 system, and CD spectra were monitored at 222 nm from 10 °C to 90 °C at a scan speed of 2 °C min^–1.
The samples were incubated at room temperature for 3 h before their full-range CD spectra or the ellipticities at 222 nm were recorded. For thermal denaturation studies, the stock peptide solutions were diluted with appropriate volumes of buffer and guanidine hydrochloride. Thermal denaturation was performed by monitoring the ellipticity change at 222 nm from 10 °C to 90 °C at a rate of 2 °C min^–1.
(§2) Table S1. Biophysical properties of the designed peptides a
(§3) a CD spectra of each designed peptide were monitored in PBS, pH 7.4. The final peptide concentration was 10 μM. […]
(§4) Table S2. Sequences of designed peptides a
(§5) a The Glu residues with a thioester side chain are underlined. Isopeptide bonds are formed between Lys-9 and Glu-14 (in […]

Series [2] is described as follows: Sedimentation velocity analysis (SVA), oligomerization state. The series is classed as physicochemical. The note with it: 150 μM in PBS (pH 7.4), 60,000 rpm, 20 °C, 280 nm; for Sedimentation coefficient: SEDFIT; for Observed molecular mass (kDa) by sedimentation analysis: SEDFIT c(M). On the procedure: All measurements were performed on a ProteomelabTMXL-A/XL-I analytical ultracentrifuge (Beckman Coulter, Fullerton, CA, USA) at 20 °C, as described previously. In brief, three-channel cells were used with an An-60 Tirotor. Lyophilized peptides were resuspended in ddH2O (pH 7.0) at approximately 1 mg mL^–1. The individual proteins were prepared in PBS and incubated at 37 °C for 30 min. All samples were prepared at a final concentration of 150 μM and were initially scanned at 3000 rpm for 10 min to identify the appropriate wavelength for data collection. Data were collected at 60 000 rpm at a wavelength of 280 nm. Sedimentation coefficient distribution, c(s), and molecular mass distribution, c(M), were calculated using the SEDFIT program.
Table S1. […]
Sedimentation equilibrium studies were performed at a concentration of 150 μM in PBS (pH 7.4) and a rotor speed of
60,000 rpm at 20 °C. b The theoretical molecular mass for the HR peptides in the monomeric conformation.
as §4, §5

A short description of series [3]: CD spectroscopy, α-helicity. As to conditions: CD in PBS, pH 7.4, final peptide concentration 10 μM, pre-incubated 37 °C 0.5 h. The series is classed as physicochemical. On the procedure:
as §1, §2, §3

Series [4] can be described thus: Chemical denaturation by Gdn·HCl followed by CD at 222 nm. It is filed as physicochemical. As to conditions: 7 M Gdn·HCl in PBS pH 7.4, 3 h at room temperature, CD 222 nm (Fig. 3C). On the procedure: For thermal denaturation studies, the stock peptide solutions were diluted with appropriate volumes of buffer and guanidine hydrochloride.
Series [5] has as its system HIV-1BaL. The series is described as follows: HIV-1BaL infection assay (TZM-b1 cells, p24 ELISA). The series is classed as cell-based. The note with it: 100 TCID50, p24 ELISA on fourth day post-infection, triplicate, mean ± standard deviation, read-out: EC50 (nM) for inhibiting HIV-1BaL infection. From the text:
(§6) To measure the inhibitory activity of the peptides on infection of HIV-1IIIB and HIV-1BaL, 1 × 10^4 MT-2 cells and TZM-b1 cells, respectively, were infected with 100 times the median tissue culture infective dose of a virus in the presence or absence of the peptides at graded concentrations. On the fourth day post-infection, the culture supernatants were collected for detection of p24 antigen using an enzyme-linked immunosorbent assay (ELISA). The percent inhibition by the peptides and EC50 values was calculated using Calcusyn software.[27]
A general note: An ELISA detects its analyte on a solid surface through an enzyme-linked reagent.

Series [6] has as its system HIV-1IIIB. As to the kind of experiment: HIV-1IIIB infection assay (MT-2 cells, p24 ELISA). It is filed as cell-based. The note with it: 100 TCID50, p24 ELISA on fourth day post-infection, triplicate, mean ± standard deviation, read-out: EC50 (nM) for inhibiting HIV–1IIIB infection.
Description: as §6

For series [7], the system named is HIV-1 Env-mediated cell–cell fusion. The note with it: read-out: EC50 (nM) for inhibiting cell–cell fusion; HL2/3 and TZM-bl cells coincubated 6–8 h at 37 °C, luciferase read-out; triplicate, mean ± standard deviation. On the procedure: Cell–cell fusion assays were performed as described previously.[26] HL2/3 cells, which stably express HIV Gag, Env, Tat, Rev, and Nef proteins, as well as TZM-bl cells, which stably express large amounts of CD4 and CCR5, were obtained from the NIH AIDS Reference and Reagent Program (contributed by Drs Barbara Felber and George Pavlakis and Drs John C. Kappes and Xiaoyun Wu, respectively). TZM-bl cells (2.5 × 10^4 per well) and HL2/3 cells (7.5 × 10^4 per well) were coincubated in 96-well plates (Corning Costar) at 37 °C in 5% CO2 in the presence of different concentrations of inhibitors. After incubation for 6–8 h, the medium was aspirated, the cells were washed and lysed, and luciferase activity was measured using the Luciferase Assay System (Promega, Madison, WI) on a SpectraMax M5 plate reader (Molecular Devices, Sunnyvale, CA).

The conditions of series [8]: rat (Sprague-Dawley, three pooled) liver homogenate, 4 mL Tris–HCl 50 mM pH 7.4 per g, 9,000g supernatant, peptide 10 μg/mL, LC-MS/MS (SIM) (Fig. 4B).
Description: (§7) Qualification assay. Chromatographic analyses were performed using an ODS-C8 column (5 μm, 100 mm × 2.0mm ID) kept at ambient temperature. The mobile phase was composed of acetonitrile-water-formic acid in the ratio of 60:40:0.1 (v/v/v) at a flow rate of 0.3 mL/min. The sample injection volume was 10 μL. Acetonitrile was HPLC grade, and other chemical reagents and solvents were analytical grade. A Thermo TSQ Quantum Discovery MAX triple–quadruple tandem mass spectrometer equipped with ESI source (San Jose, CA) and Surveyor LC pump were used for LC-MS/MS analysis. Data acquisition and data processing were performed by using Xcalibur software and LCQuan 2.0 data analysis program (Thermo Finnigan), respectively. Optimized MS parameters were as below: 4800 V spray voltage, 10.0 psi sheath gas pressure, 1.0 psi auxiliary valve flow, and 300 °C of capillary temperature. When running collision-induced dissociation (CID), the pressure was set to 1.5 mTorr. The selected ion monitoring (SIM) mode was preformed for T20
(§8) Preparation of Samples. By use of a simple protein precipitation method, a test compound was extracted from liver
(§9) homogenate and 20 ng/mL proteinase K in PBS, respectively. Samples for standard curves were prepared by spiking 50
(§10) μL of rat liver homogenate or 20 ng/mL proteinase K with 100 μL of various concentrations of each test compound
(§11) ranging from 0.1－5 μg/mL in ethanol. […]
Series [9] has as its target proteinase K (Parengyodontium album, UniProt P06873). As to conditions: 20 ng/mL proteinase K in PBS, peptide 10 μg/mL, LC-MS/MS (SIM) (Fig. 4A).
Description: as §7, §8, §9, §10, §11

Sequence of proteinase K (P06873 106-384): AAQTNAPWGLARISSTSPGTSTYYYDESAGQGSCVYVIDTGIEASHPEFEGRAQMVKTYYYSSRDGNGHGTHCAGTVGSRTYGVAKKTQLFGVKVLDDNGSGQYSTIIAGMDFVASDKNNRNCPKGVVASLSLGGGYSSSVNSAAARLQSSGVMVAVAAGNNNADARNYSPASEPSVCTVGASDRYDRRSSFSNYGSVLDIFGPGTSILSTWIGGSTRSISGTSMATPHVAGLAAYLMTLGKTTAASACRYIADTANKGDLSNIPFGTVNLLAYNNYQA

With `CC[C@H](C)[C@H](NC(=O)[C@H](CCC(N)=O)NC(=O)[C@H](CCC(N)=O)NC(=O)[C@@H](NC(=O)[C@H](CCCNC(=N)N)NC(=O)[C@H](CCC(N)=O)NC(=O)[C@H](CCC(=O)O)NC(=O)[C@@H](NC(=O)[C@H](Cc1c[nH]cn1)NC(=O)[C@H](Cc1c[nH]cn1)NC(=O)[C@@H](NC(=O)[C@H](CCCCN)NC(=O)[C@H](CCC(N)=O)NC(=O)[C@H](CCC(=O)O)NC(=O)[C@@H](NC(=O)[C@H](CCC(N)=O)NC(=O)[C@H](CCC(N)=O)NC(=O)[C@@H](NC(=O)[C@H](CCCNC(=N)N)NC(=O)[C@H](Cc1c[nH]c2ccccc12)NC(C)=O)[C@@H](C)CC)[C@@H](C)CC)[C@@H](C)CC)[C@@H](C)CC)[C@@H](C)CC)C(=O)N[C@@H](CCC(=O)O)C(=O)N[C@@H](CCC(N)=O)C(N)=O` [Compound 3HR] (Ac-WRIQQIEQKIHHIEQRIQQIEQ-NH2), the “Tm (°C)” value in [1] is 44 °C. Besides, in [2], the “Sedimentation coefficient” value is recorded as 1.2 s and the “Observed molecular mass (kDa) by sedimentation analysis” value (“Observed molecular mass (kDa)” below) was found to be 9.9 kDa. Moreover, in series [3], the “Helicity (%)” value was found to be 46.4%. Moreover, the “[θ]G/[θ]0 ([θ]222 with Gdn·HCl vs. without) / resistance to Gdn·HCl unfolding” value in [4] was “completely lost its tertiary structure”.
In the same order, the values of `CC[C@H](C)[C@H](NC(=O)[C@H](CCC(N)=O)NC(=O)[C@H](CCC(N)=O)NC(=O)[C@@H](NC(=O)[C@H](CCCNC(=N)N)NC(=O)[C@H](CCC(N)=O)NC(=O)[C@H](CCC(=O)O)NC(=O)[C@@H](NC(=O)[C@H](CCC(N)=O)NC(=O)[C@H](CCC(N)=O)NC(=O)[C@@H](NC(=O)[C@H](CCCNC(=N)N)NC(=O)[C@H](CCC(N)=O)NC(=O)[C@H](CCC(=O)O)NC(=O)[C@@H](NC(=O)[C@H](Cc1c[nH]cn1)NC(=O)[C@H](Cc1c[nH]cn1)NC(=O)[C@@H](NC(=O)[C@H](CCCCN)NC(=O)[C@H](CCC(N)=O)NC(=O)[C@H](CCC(=O)O)NC(=O)[C@@H](NC(=O)[C@H](CCC(N)=O)NC(=O)[C@H](CCC(N)=O)NC(=O)[C@@H](NC(=O)[C@H](CCCNC(=N)N)NC(=O)[C@H](Cc1c[nH]c2ccccc12)NC(C)=O)[C@@H](C)CC)[C@@H](C)CC)[C@@H](C)CC)[C@@H](C)CC)[C@@H](C)CC)[C@@H](C)CC)[C@@H](C)CC)C(=O)N[C@@H](CCC(=O)O)C(=O)N[C@@H](CCC(N)=O)C(N)=O` [Compound 4HR] (Ac-WRIQQIEQKIHHIEQRIQQIEQRIQQIEQ-NH2) are “higher than 90 °C”, 1.3 s, 10.5 kDa, 99.5% and approximately 0.2.
With `CC[C@H](C)[C@H](NC(C)=O)C(=O)N[C@@H](CCC(=O)O)C(=O)N[C@@H](C)C(=O)N[C@@H](CCC(N)=O)C(=O)N[C@@H](CCC(N)=O)C(=O)N[C@@H](Cc1c[nH]cn1)C(=O)N[C@@H](CC(C)C)C(=O)N[C@@H](CC(C)C)C(=O)N[C@@H](CCC(N)=O)C(=O)N[C@@H](CC(C)C)C(=O)N[C@H](C(=O)N[C@H](C(=O)N[C@@H](Cc1c[nH]c2ccccc12)C(=O)NCC(=O)N[C@H](C(=O)N[C@@H](CCCCN)C(=O)N[C@@H](CCC(N)=O)C(=O)N[C@@H](CC(C)C)C(=O)N[C@@H](CCC(N)=O)C(=O)N[C@@H](C)C(=O)N[C@@H](CCCNC(=N)N)C(=O)N[C@H](C(=O)N[C@@H](CC(C)C)C(N)=O)[C@@H](C)CC)[C@@H](C)CC)C(C)C)[C@@H](C)O` [Compound N23, reference compound] (Ac-IEAQQHLLQLTVWGIKQLQARIL-NH2), the “Tm (°C)” value in series [1] is “not detected”. Further, the values for the EC50 in series [5], in [6] and in series [7] were more than 10000 nM, more than 10000 nM and more than 5000 nM, respectively. In series [3], the “Helicity (%)” value came out at 16.8%.
For the compound “I: Ac-WRIQQIEQKIHHIEQRIQQIEQ-NH2 / II: Ac-WRIQQIEQKIHHIEQRIQQIEQ-NH2 / III: Ac-WRIQQIEQKIHHIEQRIQQIEQ-NH2 (amide I:9-III:14, I:14-II:9, II:14-III:9) [(3HR)3]”, the “Tm (°C)” value in [1] was “higher than 90 °C”. The “Sedimentation coefficient” value in series [2] is 1.2 s. In addition, the “Observed molecular mass (kDa)” value in [2] was determined as 9.2 kDa. In addition, the EC50 was more than 10000 nM in series [5], more than 10000 nM in series [6] and more than 5000 nM in series [7]. In [3], the “Helicity (%)” value was 83.4%. For the same compound, the “[θ]G/[θ]0 ([θ]222 with Gdn·HCl vs. without) / resistance to Gdn·HCl unfolding” value in series [4] was “almost unbreakable”.
As for “I: Ac-WRIQQIEQKIHHIEQRIQQIEQRIQQIEQ-NH2 / II: Ac-WRIQQIEQKIHHIEQRIQQIEQRIQQIEQ-NH2 / III: Ac-WRIQQIEQKIHHIEQRIQQIEQRIQQIEQ-NH2 (amide I:9-III:14, I:14-II:9, II:14-III:9) [(4HR)3]”, the “Tm (°C)” value in series [1] was “higher than 90 °C”. In series [2], the “Sedimentation coefficient” value was determined as 1.5 s. Besides, the “Observed molecular mass (kDa)” value in series [2] was determined as 13.3 kDa. For the same compound, the results for the EC50 in [5], in series [6] and in series [7] were more than 10000 nM, more than 10000 nM and more than 5000 nM, respectively. Also, the “[θ]G/[θ]0 ([θ]222 with Gdn·HCl vs. without) / resistance to Gdn·HCl unfolding” value in series [4] is listed as “almost unbreakable”.
As for “W RIQQIEQ KI HHIE Q RIQQIEQ RIEAQQH LLQLTVW GIKQLQA RIL (sidechain bridge or staple) [(3HRN23)3]”, the “Tm (°C)” value in series [1] is more than 90 °C. Moreover, the “proteolytic stability in liver homogenate, compared with T20” value in series [8] is listed as “much more resistant than T20”. Further, the “proteolytic stability in proteinase K, compared with T20” value in series [9] is reported as “much more resistant than T20”. Moreover, in series [2], the “Sedimentation coefficient” value is 1.6 s. For the same compound, the “Observed molecular mass (kDa)” value in [2] worked out at 17.3 kDa. Besides, the results for the EC50 in series [5], in series [6] and in series [7] were 58.2 ± 1.5 nM, 21.3 ± 1.8 nM and 10.2 ± 0.9 nM, respectively. Further, the “Helicity (%)” value in series [3] is recorded as 89.6%.

What is called EC50 is the midpoint of the concentration-response curve.

Values taken from PMC6054081, “De novo design of isopeptide bond-tethered triple-stranded coiled coils with exceptional resistance to unfolding and proteolysis: implication for developing antiviral therapeutics” (Chemical Science, 2015).
